The record followed here is publication PMC9606171, “Synthetic PPAR Agonist DTMB Alleviates Alzheimer’s Disease Pathology by Inhibition of Chronic Microglial Inflammation in 5xFAD Mice” (Neurotherapeutics, 2022).

By Tmax is commonly meant the time at which the peak concentration occurs. As usually defined, the half-life is how long it takes for the measured level to halve.

The target in data set [1] is T1, recombinant human PPARγ LBD (Homo sapiens, UniProt P37231).
T1 sequence (P37231 238-503 limits assumed): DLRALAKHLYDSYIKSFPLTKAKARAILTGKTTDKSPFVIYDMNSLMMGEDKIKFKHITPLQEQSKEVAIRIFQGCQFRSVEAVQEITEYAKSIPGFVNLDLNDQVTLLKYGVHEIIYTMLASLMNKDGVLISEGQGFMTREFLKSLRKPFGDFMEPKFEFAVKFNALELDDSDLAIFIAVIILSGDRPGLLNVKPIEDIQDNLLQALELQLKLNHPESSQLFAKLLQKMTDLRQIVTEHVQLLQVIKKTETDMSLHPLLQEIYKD
Nature of the data set: CNBr-bead pull down assay, PPARγ LBD. It is filed as binding. The settings on record: drug conjugated CNBr beads. As to the method: CNBr Sepharose 4B beads were prepared and activated according to the instruction. 100 mg of CNBr activated Sepharose 4B beads were incubated with drugs or DMSO for 18 h at 4 °C. The drug conjugated beads reacted to his-tagged recombinant PPAR α, β/δ, and γ protein. After 24 h of incubation, we confirmed whether recombinant protein binds to the drug conjugated bead through western blotting experiment.

The next data set deals with 5xFAD mice. The data set is described as follows: Immunohistochemistry of gliosis (Iba-1, GFAP) in 5xFAD brain. The settings on record: cortex and hippocampus, versus transgenic controls. It counts as in vivo. As to the method:
(§1) DTMB was synthesized from Daejung Chemicals (Korea) and was dissolved in dimethyl sulfoxide (Sigma Aldrich, St. Louis, MO, USA) for cell-based experiments. To evaluate the effects of DTMB on 5xFAD mice, DTMB (10 mg/kg) and vehicle (1% carboxymethylcellulose and 10% DMSO) were orally administrated to four groups (wild-type, wild-type + DTMB, 5xFAD, and 5xFAD + DTMB) with a 6 day per week for 3 months.
Mice were perfused with ice-cold phosphate-buffered saline (PBS). Brain tissues were separately used for either molecular analysis or immunohistochemistry. The right hemisphere was fixed with 4% PFA and was transferred to a sucrose solution (30%) for 24 h. The right hemisphere was embedded and frozen in optimal cutting temperature compound on dry ice. Coronal Sections (18 μm thick) that included the hippocampus were cut and prepared on slide glasses. Tissue sections were then permeabilized and blocked using a blocking solution (5% goat serum and 0.2% Triton X-100 in PBS) for 1 h at room temperature. Primary antibody incubation was performed overnight at 4 °C using an anti-6e10 antibody (Biolegend, Japan, 1:100), anti-Iba1 antibody (Wako, Japan, 1:200), and anti-GFAP antibody (Abcam, Cambridge, UK, 1:200). […] Slides were counterstained in Hoechst and then mounted in fluorescence mounting medium (Dako, Denmark). […] Fluorescence was measured by calculating % area and was analyzed using ImageJ. […]

A short description of data set [2]: Body and tissue weight after 3 months of treatment. It counts as in vivo. The settings on record: 3 months treatment; vehicle- vs DTMB-treated mice. The protocol: as §1
Data set [3] in a line: Pharmacokinetics and brain distribution after oral administration. It is filed as in vivo, C57BL/6 mice. The note with it: male, C57BL/6, mouse, mice; for Kp: brain / plasma, po, 50 mg/kg. The protocol:
To investigate the pharmacokinetics and brain distribution of DTMB, fifty-six male C57BL/6 mice (22–26 g) were fasted with water ad libitum for 16 h before oral administration of DTMB and randomly divided into seven groups (n=8 per each sampling time point). Mice were administered with a DTMB suspension in 1% carboxymethylcellulose at a dose of 50 mg/kg via oral gavage, and blood samples (approximately 0.1 mL) were collected at 0, 0.16, 0.5, 1, 4, 8, and 24 h via the abdominal artery. Subsequently, whole brain tissues were isolated, weighed, and homogenized with two volume of ice-cold 80% methanol solution using a tissue grinder. Blood samples were centrifuged at 12,000 g for 1 min to separate plasma. Aliquots of plasma (30 µL) and brain homogenate (50 µL) samples were stored at − 80 °C until analysis. Concentrations of DTMB in plasma and brain homogenate samples were analyzed using an Agilent 6470 triple quadrupole liquid chromatography-mass spectrometry (LC–MS/MS) system (Agilent, Wilmington, DE, USA). Aliquots of plasma (30 µL each) and brain homogenate (50 µL each) were added to 100 μL of internal standard solution (IS; berberin 0.1 ng/mL in methanol) and vigorously mixed for 5 min. After centrifugation at 16,000 g for 10 min, a 5 µL aliquot of the supernatant was injected into the LC–MS/MS system. DTMB was separated on a Synergi Polar RP column (2.0 × 150 mm, 4 μm particle size; Phenomenex, Torrence, CA, USA) using an isocratic mobile phase consisting of 10 mM ammonium formate buffer (10%) and methanol (90%) containing 0.1% formic acid at a flow rate of 0.25 mL/min. Quantification of the analyte peaks was carried out at m/z 513.2 → 283.0 for DTMB (TR (retention time) 4.7 min) and m/z 336.1 → 320.0 for berberine (TR 2.9 min) in a […] ionization mode with optimized fragmentor of 135 V and collision energy of 25 or 30 eV, respectively. The pharmacokinetic parameters of DTMB in the plasma and brain were determined by the non-compartmental analysis (WinNonlin® 5.1; Pharsight, Mountain View, CA, USA). Elimination half-life (T1/2) was calculated from the elimination coefficient (K) of DTMB concentrations. Cmax indicated the maximum plasma concentrations and Tmax indicated time to reach Cmax. AUClast and AUCinf were calculated from the area under plasma concentrations curve from zero to the last time point and to infinity, respectively.

Like-named read-outs stand apart in the source and are kept apart here.

As to `COc1ccc(-c2cc(=O)oc3c(C)c(OC(=O)[C@H](Cc4c[nH]c5ccccc45)NC(=O)OC(C)(C)C)ccc23)cc1` [DTMB], the “binding to PPAR LBD (pull-down, western blot)” value in data set [1] is “binds”. The “percentage of areas stained for Iba-1 and GFAP (gliosis of microglia and astrocyte)” value in the data set with 5xFAD mice was “decreased”. The “body or tissue weight” value in data set [2] was “no changes”. Moreover, the Kp in data set [3] (oral, plasma concentration range 0.63–66.9 ng/mL, read-out: mean brain DTMB concentration ratio over the plasma DTMB ([Brain]/[Plasma])) turned out to be 2.69; in data set [3] (printed in the Brain column, 50 mg/kg oral, read-out: AUC ratio) it was 3.53. In addition, the Tmax in data set [3] (Brain, 50 mg/kg oral) worked out at 0.94 ± 0.18 h; in data set [3] (Plasma, 50 mg/kg oral), 0.75 ± 0.27 h. The half-life is 4.41 ± 1.11 h in data set [3] (Brain, 50 mg/kg oral) and 1.64 ± 0.27 h in data set [3] (Plasma, 50 mg/kg oral).
